Source: paper PMC11714206, “Massively Parallel Screening of Toll/Interleukin‐1 Receptor (TIR)‐Derived Peptides Reveals Multiple Toll‐Like Receptors (TLRs)‐Targeting Immunomodulatory Peptides” (Advanced Science, 2024)

Target: T1, MAL^TIR (Homo sapiens, UniProt P58753)
T1 construct: MAL (residues 79–221); 6xHis; made in house; host or cells: E. coli BL21 (DE3)
Assay: T‐Surf phage library (P8 and P3) selection against MAL^TIR, four rounds, NGS read counts
Assay type: binding
Conditions: for P3_MAL Rank (after) / P3_MAL Rank (before): P3 library; for P8_MAL Rank (after) / P8_MAL Rank (before): P8 library; for Population: P3_MAL pool: P3 T-Surf phage library, 4th round of selection against MAL TIR, share of NGS reads
Procedure, shortened: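 P8 and P3 T‐Surf libraries panned against plate-coated TIR domains (5 µg mL^−1), 1 h binding at RT, acid elution and TG1/helper-phage amplification per round. After four rounds, pools were PCR-barcoded and sequenced (NovaSeq, 100 bp paired-end, Phred ≥30); peptides ranked by read counts.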

[1] = P3_MAL: rank by count after grouping
[2] = P3_MAL: rank by count before grouping
[3] = selection against MAL, rank by count after grouping
[4] = selection against MAL, rank by count before grouping
[5] = selection against MAL TIR, rank by count after grouping
[6] = selection against MAL TIR, rank by count before grouping
[7] = P8_MAL: rank by count after grouping
[8] = P8_MAL: rank by count before grouping
[9] = 4R selection against MAL, rank after grouping
[10] = 4R selection against MAL, rank before grouping
[11] = selection against MAL, rank after grouping
[12] = selection against MAL, rank before grouping

T1 sequence (P58753 79-221): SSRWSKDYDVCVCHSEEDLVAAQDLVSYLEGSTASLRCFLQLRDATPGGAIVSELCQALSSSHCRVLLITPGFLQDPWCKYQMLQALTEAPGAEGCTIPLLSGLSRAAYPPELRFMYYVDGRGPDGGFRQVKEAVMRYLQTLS

NGHGSAIIKEIVVTSW
Rank (after) [1]: 468
Rank (before) [2]: 3252

NGYGSELIKEIVDTGV
P3_MAL Rank (after) [3]: 702
P3_MAL Rank (before) [4]: 3249

NHSRNALTAAANLSGW
P3_MAL Rank (after) [5]: 263
P3_MAL Rank (before) [6]: 3433

NHWRNALTAAANLIGW
P8_MAL Rank (after) [5]: 248
P8_MAL Rank (before) [6]: 2657

NLIQGWLLYRLLKIEK
P8_MAL Rank (after) [5]: 286
P8_MAL Rank (before) [6]: 2678

NLLYDLLRWLGIRAFL
Rank (after) [7]: 403
Rank (before) [8]: 2677

NLWKLWTKPGGVRDDR
P3_MAL Rank (after) [9]: 618
P3_MAL Rank (before) [10]: 3319

NLWRNALTAAANLSSW
P8_MAL Rank (after) [3]: 720
P8_MAL Rank (before) [4]: 2656

NLWRNALTVAANLSGW
P3_MAL Rank (after) [11]: 540
P3_MAL Rank (before) [12]: 3318

NNLFNALVSKNIRTFM
P3_MAL Rank (after) [5]: 258
P3_MAL Rank (before) [6]: 3481

NNLFNELVSKNIRTFT
P3_MAL Rank (after) [3]: 735
P3_MAL Rank (before) [4]: 3480

NQAFWNRLWAKLKPLT
P3_MAL Rank (after) [9]: 631
P3_MAL Rank (before) [10]: 3431

NQCHNAITADMNQTRL
Rank (after) [1]: 402
Rank (before) [2]: 3424

NQCRNALTAAANLKGW
Rank (after) [1]: 146
Rank (before) [2]: 3327

NQCRNALTAAANLSGW
Population: 0.00376%

NQCRNALTPAAKLSSL
P3_MAL Rank (after) [11]: 538
P3_MAL Rank (before) [12]: 3423

NQCSNALTGAAILSGW
P3_MAL Rank (after) [9]: 641
P3_MAL Rank (before) [10]: 3329

NQCTDALTAAVVLSGW
P3_MAL Rank (after) [11]: 528
P3_MAL Rank (before) [12]: 3330

NQLRNALTASANLSGW
P3_MAL Rank (after) [9]: 613
P3_MAL Rank (before) [10]: 3325

NQLRTALTAAANLSGW
P3_MAL Rank (after) [5]: 267
P3_MAL Rank (before) [6]: 3324

NQRRNAVTAAAKLSGC
Rank (after) [1]: 469
Rank (before) [2]: 3476

NQWHNALAAAANLLGL
Rank (after) [1]: 473
Rank (before) [2]: 3418

NQWRDPLTGDMILSGW
P3_MAL Rank (after) [3]: 767
P3_MAL Rank (before) [4]: 3336

NQWRNALPAAANLRGW
P3_MAL Rank (after) [5]: 286
P3_MAL Rank (before) [6]: 3349

NQWRNALSSIASRP
P3_MAL Rank (after) [9]: 625
P3_MAL Rank (before) [10]: 3351

NQWRNALTAAAHLSGL
Rank (after) [1]: 157
Rank (before) [2]: 3362

NQWRNALTAAAKLKAPI
P3_MAL Rank (after) [11]: 522
P3_MAL Rank (before) [12]: 3386

NQWRNALTAAAKLSGG
P3_MAL Rank (after) [11]: 564
P3_MAL Rank (before) [12]: 3384

NQWRNALTAAANLIGW
Population: 0.00413%

NQWRNALTAAANLRGR
Rank (after) [1]: 145
Rank (before) [2]: 3369

NQWRNALTAAANLSDR
P3_MAL Rank (after) [5]: 282
P3_MAL Rank (before) [6]: 3379

NQWRNALTAAANLSGR
Population: 0.00564%

NQWRNALTAAANLSVC
P3_MAL Rank (after) [9]: 610
P3_MAL Rank (before) [10]: 3370

NQWRNALTAAANQSGL
Rank (after) [1]: 161
Rank (before) [2]: 3383

NQWRNALTAAASLSGR
P3_MAL Rank (after) [5]: 221
P3_MAL Rank (before) [6]: 3364

NQWRNALTAASNLSIW
Rank (after) [1]: 169
Rank (before) [2]: 3353

NQWRNALTAATNLSGG
Rank (after) [1]: 119
Rank (before) [2]: 3403

NQWRNALTAEAKLSGW
P3_MAL Rank (after) [5]: 268
P3_MAL Rank (before) [6]: 3414

NQWRNALTAEANLSGW
Population: 0.00413%

NQWRNALTAPANLSGR
P3_MAL Rank (after) [5]: 228
P3_MAL Rank (before) [6]: 3389

NQWRNALTATANLSGL
P3_MAL Rank (after) [9]: 604
P3_MAL Rank (before) [10]: 3390

NQWRNALTAVANLSGW
Population: 0.00451%

NQWRNALTKVANLV
Population: 0.00639%
Rank (after) [1]: 107
Rank (before) [2]: 124

NQWRNAQTAAAKLSGW
Rank (after) [1]: 152
Rank (before) [2]: 3399

NQWRNELNAAANLSGW
P3_MAL Rank (after) [5]: 255
P3_MAL Rank (before) [6]: 3406

NQWRNELTAAANLNGW
P3_MAL Rank (after) [11]: 508
P3_MAL Rank (before) [12]: 3405

NQWRNSLTAAANLRGW
Rank (after) [1]: 173
Rank (before) [2]: 3340

NQWRNSLTAAANLSCW
P3_MAL Rank (after) [5]: 204
P3_MAL Rank (before) [6]: 3341

NQWRNSLTAAANLSGR
Rank (after) [1]: 176
Rank (before) [2]: 3342

NQWRNTLTAAANLSGW
Population: 0.00376%

NQWSNELTAAANLRGW
P3_MAL Rank (after) [11]: 575
P3_MAL Rank (before) [12]: 3420

NQWSNSLTAAANLSGW
Rank (after) [1]: 186
Rank (before) [2]: 3419

NRWRNALTAAANLSGW
Population: 0.00376%

NSFRERLRHLMAHSKM
P3_MAL Rank (after) [9]: 620
P3_MAL Rank (before) [10]: 3479

NYASSSWALDELWNIF
P8_MAL Rank (after) [11]: 502
P8_MAL Rank (before) [12]: 2655

PDKDKGGENAFINNIV
P3_MAL Rank (after) [11]: 488
P3_MAL Rank (before) [12]: 2636

PEKDHGGENAIIKNIE
P3_MAL Rank (after) [11]: 556
P3_MAL Rank (before) [12]: 2639

PEKDNGGANAFSNNIV
P3_MAL Rank (after) [5]: 200
P3_MAL Rank (before) [6]: 2645

PEKDTVRVNVIIHNIV
Rank (after) [1]: 470
Rank (before) [2]: 2642

PESGKLASGAGKSGQT
P3_MAL Rank (after) [9]: 609
P3_MAL Rank (before) [10]: 2638

PFFWAQLKSLLRNPTS
P8_MAL Rank (after) [11]: 574
P8_MAL Rank (before) [12]: 2320

PFFWEHLRHLLRSHTL
Rank (after) [7]: 480
Rank (before) [8]: 2325

PFFWEQLRTVLGKPTK
P8_MAL Rank (after) [11]: 510
P8_MAL Rank (before) [12]: 2323

PFLGHLSNALVQAGIH
Rank (after) [7]: 132
Rank (before) [8]: 2331

PFLVHQYNEALQADSH
P8_MAL Rank (after) [3]: 695
P8_MAL Rank (before) [4]: 2330

PKLRTKVLKYQMRTKT
Rank (after) [1]: 426
Rank (before) [2]: 2762

PKLRTKVMNYLMRTKT
Rank (after) [1]: 155
Rank (before) [2]: 2759

PLLYTFLINLTHPTNF
Rank (after) [7]: 104
Rank (before) [8]: 2327

PNLGTKTLNYLTRTKT
P3_MAL Rank (after) [3]: 730
P3_MAL Rank (before) [4]: 2666

PNLLTKVLHYLMRTKT
P3_MAL Rank (after) [3]: 768
P3_MAL Rank (before) [4]: 2667

PNLRNKVLNYLLRTKT
P3_MAL Rank (after) [11]: 574
P3_MAL Rank (before) [12]: 2748

PNLRPKVRNYLIRTKT
P3_MAL Rank (after) [11]: 532
P3_MAL Rank (before) [12]: 2672

PNLRPQVLNYLIRTKT
P3_MAL Rank (after) [5]: 208
P3_MAL Rank (before) [6]: 2670

PNLRTKELIYLMRTKT
P3_MAL Rank (after) [9]: 667
P3_MAL Rank (before) [10]: 2738

PNLRTKGLNYLMRTKT
Population: 0.00338%

PNLRTKGLNYRMRTKT
Rank (after) [1]: 415
Rank (before) [2]: 2736

PNLRTKLLNSLMRTKT
P3_MAL Rank (after) [5]: 273
P3_MAL Rank (before) [6]: 2682

PNLRTKLLNYLIRTKT
P3_MAL Rank (after) [5]: 280
P3_MAL Rank (before) [6]: 2694

PNLRTKLLNYLMHTKT
P3_MAL Rank (after) [5]: 247
P3_MAL Rank (before) [6]: 2742

PNLRTKVLAYLNRTKT
P3_MAL Rank (after) [5]: 240
P3_MAL Rank (before) [6]: 2701

PNLRTKVLDYLLRTKT
Rank (after) [1]: 406
Rank (before) [2]: 2702

PNLRTKVLHHLMRTKP
Rank (after) [1]: 405
Rank (before) [2]: 2706

PNLRTKVLNSLMSTKT
Rank (after) [1]: 477
Rank (before) [2]: 2709

PNLRTKVLNYLFRTNT
P3_MAL Rank (after) [5]: 237
P3_MAL Rank (before) [6]: 2711

PNLRTKVLNYLILTKT
Rank (after) [1]: 190
Rank (before) [2]: 2747

PNLRTKVLNYLMRIKT
Population: 0.00413%

PNLRTKVLNYLMRNKT
Population: 0.00526%

PNLRTKVLNYLMRSKT
Population: 0.00451%

PNLRTKVLNYLMRTK
Rank (after) [1]: 174
Rank (before) [2]: 955

PNLRTKVLSYLMRTKT
Population: 0.00376%

PNLRTKVLSYLMRTTT
P3_MAL Rank (after) [5]: 270
P3_MAL Rank (before) [6]: 2674

PNLRTKVLSYPMRTMT
P3_MAL Rank (after) [3]: 741
P3_MAL Rank (before) [4]: 2707

PNLRTKVLYYPMRTKT
P3_MAL Rank (after) [9]: 624
P3_MAL Rank (before) [10]: 2699

PNLRTKVMNYLIRTKP
P3_MAL Rank (after) [9]: 643
P3_MAL Rank (before) [10]: 2733

PNLRTKVPDYLKRTKT
P3_MAL Rank (after) [9]: 608
P3_MAL Rank (before) [10]: 2730

PNLRTKVPNYPMLTKT
P3_MAL Rank (after) [9]: 640
P3_MAL Rank (before) [10]: 2680

PNLRTNVLHYLMRTKT
Rank (after) [1]: 171
Rank (before) [2]: 2695

PNLRTNVLNYLIRTKT
Rank (after) [1]: 141
Rank (before) [2]: 2745

PNLRTNVLNYLMRPKT
P3_MAL Rank (after) [5]: 266
P3_MAL Rank (before) [6]: 2696

PNLRTNVMNYLMRTKT
Rank (after) [1]: 175
Rank (before) [2]: 2692

PNLRTQVQNYLLPNKT
P3_MAL Rank (after) [11]: 524
P3_MAL Rank (before) [12]: 2686

PNLRTTLMTSPMRTKT
P3_MAL Rank (after) [9]: 656
P3_MAL Rank (before) [10]: 2673

PNLRTTVLKYLIRTKT
Rank (after) [1]: 446
Rank (before) [2]: 2749

PNLRTTVPTYLMRTKT
P3_MAL Rank (after) [3]: 726
P3_MAL Rank (before) [4]: 2689

PNLRTTVQNYLMRTKT
P3_MAL Rank (after) [5]: 216
P3_MAL Rank (before) [6]: 2690

PNLSNKVMNYLMRTQT
P3_MAL Rank (after) [9]: 634
P3_MAL Rank (before) [10]: 2753

PNLSPKVLNYLMRTKT
Rank (after) [1]: 181
Rank (before) [2]: 2751
